Test results: patent publication US8735388B2, “Heterocyclic compounds with affinity to muscarinic receptors” (Abbvie B. V. A., priority 2007, dated 2014)
Where two headings read alike, the source gives them in different places.

Tests used:
[1] = biological target: T1, Muscarine M4 (GPCR-A-MA-ACH M4) (Homo sapiens, UniProt P08173); assay: Muscarine M4 receptor binding, 3H-4DAMP; conditions: human M4, CHO cells, ligand 0.2 nM, 60 min/22° C.; for Ki: read-out: RB Musc. M4 3H-DAMP pKi (converted)
T1 construct: expressed in transfected cells; host or cells: CHO cells
T1 sequence (P08173 1-479): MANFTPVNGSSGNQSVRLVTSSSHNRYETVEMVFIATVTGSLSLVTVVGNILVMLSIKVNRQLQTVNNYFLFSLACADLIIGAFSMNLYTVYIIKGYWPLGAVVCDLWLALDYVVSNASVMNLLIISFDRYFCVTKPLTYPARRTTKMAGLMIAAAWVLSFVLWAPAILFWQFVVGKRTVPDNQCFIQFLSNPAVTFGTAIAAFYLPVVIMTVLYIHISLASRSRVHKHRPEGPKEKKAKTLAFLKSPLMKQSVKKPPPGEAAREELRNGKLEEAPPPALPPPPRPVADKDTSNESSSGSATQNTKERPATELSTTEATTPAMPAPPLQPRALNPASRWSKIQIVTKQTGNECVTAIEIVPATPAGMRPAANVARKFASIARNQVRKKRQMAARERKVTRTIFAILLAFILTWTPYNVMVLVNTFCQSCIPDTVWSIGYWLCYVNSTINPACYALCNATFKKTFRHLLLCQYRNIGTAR
Procedure: (§1) Compounds were dissolved in DMSO (10 mM) and diluted in assay buffer to test concentration. Prime testing was at 10 μM; for actives (PI, percent inhibition with respect to total and non-specific binding >40%) testing was continued at lower concentrations in 10-fold dilutions: 1 μM, 0.1 μM, etc.
(§2) Following incubation of compound with the receptor preparation (from ‘Tissue’) and the Ligand at the time and temperature indicated, the receptor preparations were rapidly filtered under vacuum through glass fibre filters; the filters were washed extensively with an ice-cold buffer using a harvester. Bound radioactivity was measured by scintillation counting using a liquid scintillation cocktail.
(§3) Results were expressed as percentage of total Ligand binding and that of Non Specific Binding, per concentration of Compound tested (duplicates); from the concentration—displacement curves IC50 values were determined by non-linear regression analysis using Hill equation curve fitting. The inhibition constants (Ki) were calculated from the Cheng-Prushoff equation Ki=IC50/(1+L/Kd), where L is the concentration of radioligand in the assay, and Kd the affinity of the radioligand for the receptor. Results were expressed as pKi's, means±SD of at least 2 separate experiments; i.e. outliers (outside+/−1 std of mean) and discrepancies were excluded.

[2] = biological target: T1, Muscarine M4 (GPCR-A-MA-ACH M4); assay: Muscarine M4 receptor binding, 3H-Oxotremorine
Procedure: as §1, §2, §3

[3] = biological target: T1, Muscarine M4 (GPCR-A-MA-ACH M4); assay: Muscarine M4 cell-based functional assay (CHO cells, Ca2+ - Aequorin luminescence)
Procedure: Compounds were dissolved in DMSO (10 mM) and diluted in assay buffer to test concentration. Prime testing was at 1 μM; for actives in antagonist mode (PI, percent inhibition with respect to reference agonist and blank>30%) as well as actives in agonist mode (PS, percent stimulation with respect to reference agonist and blank>30%) testing was continued at lower concentrations in 10-fold dilutions: 0.1 μM, 0.01 μM, etc.
Cells were incubated with compound and the response indicated was measured.
The results are expressed as a percent of reference agonist values and blanks in the presence of the test compound, percent stimulation for agonist mode; for the antagonist mode (test compound in the presence of reference agonist) as percent inhibition. The EC50 values (concentration causing a half-maximal stimulation of control values), IC50 values (concentration causing a half-maximal inhibition of control values) were determined by non-linear regression analysis of the concentration-response curves using Hill equation curve fitting.

[4] = biological target: T2, Muscarine M1 (GPCR-A-MA-ACH M1) (Homo sapiens, UniProt P11229); assay: Muscarine M1 receptor binding, 3H-Pirenzepine; conditions: human M1, CHO cells, ligand 2 nM, 60 min/22° C.; for Ki: read-out: RB Musc. M1 3H-Pirenzepine pKi (converted)
T2 construct: expressed in transfected cells; host or cells: CHO cells
T2 sequence (P11229 1-460): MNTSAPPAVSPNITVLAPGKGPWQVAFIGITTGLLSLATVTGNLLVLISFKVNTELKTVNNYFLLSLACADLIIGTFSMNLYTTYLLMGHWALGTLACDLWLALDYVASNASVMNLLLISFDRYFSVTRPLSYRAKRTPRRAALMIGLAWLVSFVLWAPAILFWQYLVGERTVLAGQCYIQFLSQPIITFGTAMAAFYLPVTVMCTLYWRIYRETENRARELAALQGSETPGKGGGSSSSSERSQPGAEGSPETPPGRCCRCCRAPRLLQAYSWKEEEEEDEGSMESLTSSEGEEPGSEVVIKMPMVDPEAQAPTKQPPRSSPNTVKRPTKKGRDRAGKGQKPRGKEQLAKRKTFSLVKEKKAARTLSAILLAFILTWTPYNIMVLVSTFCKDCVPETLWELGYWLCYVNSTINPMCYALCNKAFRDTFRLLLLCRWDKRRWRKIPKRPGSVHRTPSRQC
Procedure: as §1, §2, §3

[5] = biological target: T2, Muscarine M1 (GPCR-A-MA-ACH M1); assay: Muscarine M1 cell-based functional assay (CHO cells, Ca2+ - FLIPR Fluorimetry); conditions: for EC50: read-out: Cell funct. Musc. M1 Agonism pEC50 (converted)
[6] = biological target: T3, Muscarine M2 (GPCR-A-MA-ACH M2) (Homo sapiens, UniProt P08172); assay: Muscarine M2 receptor binding
T3 construct: expressed in transfected cells; host or cells: CHO cells
T3 sequence (P08172 1-466): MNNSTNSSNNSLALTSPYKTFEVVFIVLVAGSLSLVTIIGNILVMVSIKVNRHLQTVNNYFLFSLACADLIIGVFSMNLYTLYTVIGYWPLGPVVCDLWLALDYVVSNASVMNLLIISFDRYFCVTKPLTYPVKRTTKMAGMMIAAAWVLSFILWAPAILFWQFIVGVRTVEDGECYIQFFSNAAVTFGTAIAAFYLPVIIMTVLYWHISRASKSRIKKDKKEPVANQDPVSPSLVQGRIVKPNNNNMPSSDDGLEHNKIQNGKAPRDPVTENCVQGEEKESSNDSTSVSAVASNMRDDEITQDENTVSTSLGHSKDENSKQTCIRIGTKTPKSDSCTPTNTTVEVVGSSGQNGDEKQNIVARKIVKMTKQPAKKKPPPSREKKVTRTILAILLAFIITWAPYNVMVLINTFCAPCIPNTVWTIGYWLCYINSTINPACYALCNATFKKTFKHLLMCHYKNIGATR

[7] = biological target: T4, Muscarine M2 (GPCR-A-MA-ACH M2) (Cavia porcellus, UniProt H0VRN8); assay: Muscarine M2 functional assay, isolated organ (left atrium, electrically paced), agonist and antagonist mode; design: species or system Guinea Pig; conditions: for EC50: read-out: Cell funct. Musc. M2 Agonism pEC50 (converted)
T4 construct: from tissue; host or cells: guinea pig left atrium (electrically paced)
T4 sequence (H0VRN8 1-466): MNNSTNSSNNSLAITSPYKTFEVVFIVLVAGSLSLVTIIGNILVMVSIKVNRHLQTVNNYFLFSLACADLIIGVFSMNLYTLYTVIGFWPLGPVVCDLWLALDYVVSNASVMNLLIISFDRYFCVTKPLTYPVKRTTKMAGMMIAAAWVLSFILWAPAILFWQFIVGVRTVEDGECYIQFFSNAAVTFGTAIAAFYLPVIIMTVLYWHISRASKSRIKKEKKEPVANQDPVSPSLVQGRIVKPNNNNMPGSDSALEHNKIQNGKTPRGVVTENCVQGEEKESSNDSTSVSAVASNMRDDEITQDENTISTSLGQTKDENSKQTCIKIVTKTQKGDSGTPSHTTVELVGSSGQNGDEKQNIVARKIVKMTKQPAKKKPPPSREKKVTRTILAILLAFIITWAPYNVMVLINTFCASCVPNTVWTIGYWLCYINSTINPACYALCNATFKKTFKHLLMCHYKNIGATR

[8] = biological target: T5, Muscarine M3 (GPCR-A-MA-ACH M3) (Homo sapiens, UniProt P20309); assay: Muscarine M3 receptor binding
T5 construct: expressed in transfected cells; host or cells: CHO cells
T5 sequence (P20309 whole entry): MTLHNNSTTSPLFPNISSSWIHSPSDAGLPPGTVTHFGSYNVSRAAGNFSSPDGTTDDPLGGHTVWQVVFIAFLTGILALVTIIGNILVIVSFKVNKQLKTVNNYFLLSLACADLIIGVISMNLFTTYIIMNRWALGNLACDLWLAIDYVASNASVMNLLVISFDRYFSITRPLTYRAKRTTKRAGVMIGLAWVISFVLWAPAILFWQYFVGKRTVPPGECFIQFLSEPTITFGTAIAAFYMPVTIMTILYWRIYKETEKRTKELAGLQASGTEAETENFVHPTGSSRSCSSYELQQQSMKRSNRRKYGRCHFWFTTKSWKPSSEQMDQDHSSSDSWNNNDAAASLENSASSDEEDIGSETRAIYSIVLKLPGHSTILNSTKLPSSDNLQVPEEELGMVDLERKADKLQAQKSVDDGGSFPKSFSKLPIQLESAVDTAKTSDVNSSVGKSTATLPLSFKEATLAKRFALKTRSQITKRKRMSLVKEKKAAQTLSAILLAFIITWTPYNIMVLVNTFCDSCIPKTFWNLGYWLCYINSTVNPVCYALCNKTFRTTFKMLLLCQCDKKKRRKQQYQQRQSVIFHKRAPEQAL

[9] = biological target: T6, Muscarine M3 (GPCR-A-MA-ACH M3) (Cavia porcellus, UniProt H0W1Z3); assay: Muscarine M3 functional assay, isolated organ (ileum), agonist and antagonist mode; design: species or system Guinea Pig; conditions: for EC50: read-out: Cell funct. Musc. M3 Agonism pEC50 (converted)
T6 construct: from tissue; host or cells: guinea pig ileum
T6 sequence (H0W1Z3 1-590): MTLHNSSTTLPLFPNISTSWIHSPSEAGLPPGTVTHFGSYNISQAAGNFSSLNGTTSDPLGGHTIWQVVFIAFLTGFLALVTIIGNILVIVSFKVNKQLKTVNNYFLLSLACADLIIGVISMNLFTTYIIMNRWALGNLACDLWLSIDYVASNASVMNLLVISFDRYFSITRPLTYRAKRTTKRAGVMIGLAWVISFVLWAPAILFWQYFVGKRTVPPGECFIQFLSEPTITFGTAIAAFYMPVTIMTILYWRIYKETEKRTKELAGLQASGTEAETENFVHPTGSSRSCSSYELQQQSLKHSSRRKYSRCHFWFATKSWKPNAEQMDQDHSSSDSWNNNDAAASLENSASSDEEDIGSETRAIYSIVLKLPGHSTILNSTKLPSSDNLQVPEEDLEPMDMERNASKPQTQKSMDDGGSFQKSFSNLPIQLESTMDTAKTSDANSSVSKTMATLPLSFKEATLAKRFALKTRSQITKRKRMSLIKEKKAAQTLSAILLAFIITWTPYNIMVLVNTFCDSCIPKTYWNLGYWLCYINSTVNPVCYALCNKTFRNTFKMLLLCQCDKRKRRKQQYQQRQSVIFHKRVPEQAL

[10] = human M4, CHO cells, receptor binding, ligand 6 nM, 30 min/25° C., read-out: RB Musc. M4 3H-Oxotremorine pKi (converted)
[11] = human M4, CHO cells, agonist mode, reference agonist oxotremorine, read-out: Cell funct. Musc. M4 Agonism pEC50 (converted)
[12] = human M1, CHO cells, agonist mode, reference agonist acetylcholine
[13] = human M2, CHO cells, receptor binding
[14] = read-out: Cell funct. Musc. M2 Antagonism pA2 (converted)
[15] = human M3, CHO cells, receptor binding

Row | Ki [2, 10] [nM] | EC50 [3, 11] [nM] | EC50 [5, 12] [nM] | Ki [6, 13] [nM] | Kb [7, 14] [nM] | Ki [8, 15] [nM] | Compound | Ki [1] [nM] | Ki [2] [nM] | Ki [4] [nM] | EC50 [5] [nM] | Ki [6] [nM] | Kb [7] [nM] | EC50 [7] [nM] | Ki [8] [nM] | Kb [9] [nM] | EC50 [9] [nM] | other results
1 | – | – | – | – | – | – | c1ccc(CCSc2c[nH]nc2C2CN3CCC2CC3)cc1 (stereo not shown) [Compound 49G, 3-(4-Phenethylsulfanyl-1H-pyrazol-3-yl)-1-azabicyclo[2.2.2]octane] | – | – | – | – | – | – | – | – | – | – | RB Musc. M4 3H-DAMP pKi [1]: 7.0; RB Musc. M4 3H-Oxotremorine pKi [2]: 7.6; Cell funct. Musc. M4 Agonism pEC50 [3]: 8.0; RB Musc. M1 3H-Pirenzepine pKi [4]: 6.2; Cell funct. Musc. M1 Agonism pEC50 [5]: 7.3; RB Musc M2 methoctramine [6]: 6.1; Cell funct. Musc. M2 Agonism pEC50 [7]: <6; Cell funct. Musc. M2 Antagonism pA2 [7]: <6; RB Musc M3 4-DAMP [8]: 6.5; Cell funct. Musc. M3 Agonism pEC50 [9]: <6; Cell funct. Musc. M3 Antagonism pA2 [9]: <6
2 | – | – | – | – | – | – | CCCSc1c[nH]nc1C1CN2CCC1CC2 (stereo not shown) [Compound 49E, 3-(4-Propylsulfanyl-1H-pyrazol-3-yl)-1-azabicyclo[2.2.2]octane] | 39.8 | 79.4 | 316 | 10 | 501 | > 1000 | 794 | 126 | > 1000 | > 1000 | EC50 [3]: 79.4 nM
3 | – | – | – | – | – | – | CCCCCOc1c[nH]nc1C1CN2CCC1CC2 (stereo not shown) [Compound 52C, 3-(4-Pentyloxy-1H-pyrazol-3-yl)-1-azabicyclo[2.2.2]octane] | 251 | 63.1 | 1000 | 12.6 | 2510 | > 1000 | > 1000 | 631 | > 1000 | > 1000 | –
4 | 158 | > 10000 | > 1000 | 398 | > 1000 | 31.6 | CN1CCC=C(c2n[nH]cc2SCCCCCSc2c[nH]nc2C2=CCCN(C)C2)C1 [Compound 22C] | 63.1 | – | 251 | – | – | – | > 1000 | – | > 1000 | > 1000 | –
5 | 200 | 501 | 100 | 1260 | > 1000 | 398 | CCCCCCOc1c[nH]nc1C1=CCCN(C)C1 [Compound 33B, 3-(4-Hexyloxy-1H-pyrazol-3-yl]-1,2,5,6-tetrahydro-1-methylpyridine] | 316 | – | 1000 | – | – | – | > 1000 | – | > 1000 | > 1000 | –
6 | 631 | 7940 | 126 | 5010 | > 1000 | 794 | CCCCCSc1nc[nH]c1C1=CCCN(C)C1 [Compound 76A, 3-(5-Pentylsulfanyl-3H-imidazol-4-yl)-1,2,5,6-tetrahydro-1-methylpyridine] | 316 | – | 2510 | – | – | – | > 1000 | – | > 1000 | > 1000 | –
7 | – | – | – | – | – | – | CCCCOc1c[nH]nc1C1CN2CCC1CC2 (stereo not shown) [Compound 52A, 3-(4-Butoxy-1H-pyrazol-3-yl)-1-azabicyclo[2.2.2]octane] | 251 | 126 | 794 | 20 | 3980 | > 1000 | > 1000 | 794 | > 1000 | > 1000 | –
8 | 158 | > 10000 | 398 | 2000 | > 1000 | 50.1 | CC(C)CCSc1c[nH]nc1C1=CCCN(C)C1 [Compound 22S, 3-[4-(3-methyl-butylsulfanyl)-1H-pyrazol-3-yl]-1,2,5,6-tetrahydro-1-methylpyridine] | 50.1 | – | 126 | – | – | – | > 1000 | – | 100 | > 1000 | –
9 | – | – | – | – | – | – | CCCOc1c[nH]nc1C1CN2CCC1CC2 (stereo not shown) [Compound 52B, 3-(4-Propoxy-1H-pyrazol-3-yl)-1-azabicyclo[2.2.2]octane] | 126 | 63.1 | 631 | 7.94 | 1260 | 25.1 | > 1000 | 316 | > 1000 | > 1000 | EC50 [3]: 100 nM
